Literature values as cited in patent US20070287931A1, “Methods and systems for administering an appropriate pharmacological treatment to a patient for managing epilepsy and other neurological disorders” (priority 2006, published 2007).
Like-named read-outs stand apart in the source and are kept apart here.

How the values were obtained:
[1] = for plasma concentration per daily dose of 1 mg/kg: per daily dose of 1 mg/kg; for plasma concentration per daily dose of 1 mg/kg of primidone: per daily dose of 1 mg/kg of primidone
[2] = intranasal
[3] = system: seizure; settings: intranasal
[4] = system: seizures
[5] = system: cultured mouse spinal cord neurons; settings: 10-30 μg/mL
[6] = system: sodium channels; settings: in vitro
[7] = system: GABA/benzodiazepine receptor ionophore complex; settings: in vitro
[8] = system: partial seizures; settings: controlled trials, adjunctive therapy of partial seizures in adults, oral
[9] = system: T-type Ca^2+ currents; settings: in vitro
[10] = system: dopaminergic and serotonergic neurotransmission; settings: in vivo microdialysis
[11] = system: rat hippocampal slices; settings: 10-30 μg/mL
[12] = system: carbonic anhydrase

CCC1(C)CC(=O)NC1=O (stereo not drawn) [ethosuximide, Ethosuximide]
plasma concentration per daily dose of 1 mg/kg ([1]; long-term therapy): about 2 μg/ml

Cc1ncc2n1-c1ccc(Cl)cc1C(c1ccccc1F)=NC2 [Midazolam]
KA (absorption rate constant) [2]: 2.46 h⁻¹
tE1/2 (elimination half-life) [2]: 3.1 h
time to terminate a seizure [3]: 30 s

CCC1(c2ccccc2)C(=O)NCNC1=O [primidone, Primidone]
plasma concentration per daily dose of 1 mg/kg of primidone ([1]; long term therapy): about 1 μg/ml

CCC1(c2ccccc2)C(=O)NC(=O)NC1=O [phenobarbital, Phenobarbital]
plasma concentration per daily dose of 1 mg/kg ([1]; long term therapy, adults): about 10 μg/ml
plasma concentration per daily dose of 1 mg/kg of primidone ([1]; long term therapy): about 2 μg/ml

O=C1NC(=O)C(c2ccccc2)(c2ccccc2)N1 [Phenyloin, diphenylhydantoin]
concentrations at which toxic effects such as nystagmus develop: around 20 μg/ml
concentrations giving chronic control of seizures [4]: above 10 μg/ml

NS(=O)(=O)Cc1noc2ccccc12 [zonisamide, 1,2-benzisoxazole-3-methanesulfonamide]
postsynaptic GABA or glutamate responses [5]: without affecting
synaptically-driven electrical activity [5]: suppresses synaptically-driven electrical activity
effect on sodium channels [6]: blocks sodium channels
binding to the GABA/benzodiazepine receptor ionophore complex [7]: binds to the GABA/benzodiazepine receptor ionophore complex in an allosteric fashion which does not produce changes in chloride flux
effective doses [8]: 100 to 600 mg/day
effect on voltage-dependent, transient inward currents (T-type Ca2+ currents) [9]: reduces voltage-dependent, transient inward currents
dopaminergic and serotonergic neurotransmission [10]: facilitates both dopaminergic and serotonergic neurotransmission
neuronal or glial uptake of [3H]-GABA [11]: without affecting
carbonic anhydrase inhibiting activity [12]: weak
